From patent publication US20250275949A1, “USE OF DITERPENE COMPOUND DERIVATIVE OR SALT THEREOF IN PREPARATION OF MEDICINE FOR PREVENTING AND TREATING ATOPIC DERMATITIS” (SUZHOU PHARMAVAN CO., LTD, priority 2022, published 2025)

What was measured:
Type in all cases: in vivo, BALB/c mice
[1] = system: MC903-induced AD model; experiment: MC903-induced AD mouse model, itching symptoms (scratching times), Example 4; details: cream 0.1% and 0.5%, right auricle, day 3 to day 10; video on the day before the experiment ended
From the text: Experimental animals involved in the following embodiments were SPF-grade BALB/c mice (≥7 weeks old, female). This example explores the preventive and therapeutic effect of a small-molecule diterpene derivative to itching symptoms on the MC903-induced AD model, including the following: • The day of grouping was defined as day 0. Mice were randomly divided into 5 groups: blank control (NC) group, model (MC903) group, blank cream (vehicle) group, 0.1%-Compound 1 cream group, and 0.5%-Compound 1 cream group; each group had 10 animals. Each group except NC group was treated for modeling AD. From day 0 to day 10:0.1 nmol/μL-MC903solution was applied to the auricle of right ear at 20 μL once a day. Each group except NC group and MC903 group was administrated. The administration started from day 3 to day 10, and the mice was administrated once a day at the auricle of right ear by 50 μL. The administration method for modeling and the design of subject dosage are same as Example 3. On the day before the experiment ended, the mice were videoed, and the mice of AD model were evaluated through the video about their scratching times in 15 min.

[2] = system: OXA-induced AD model; experiment: OXA-induced AD mouse model, Example 1 (eight compounds in castor oil); details: 0.1% in castor oil, day 7 to day 23; for OXA-induced AD-like lesions (conclusion of Example 1): auricle
From the text: Experimental animals involved in the following embodiments were SPF-grade BALB/c mice (≥7 weeks old, female). The scoring criteria for skin lesions involved in the following embodiments are shown in Table 1 and the histopathological scoring criteria are shown in Table 2. [table] The day of grouping was defined as day 0. Mice were randomly divided into 11 groups: blank control (NC) group, model (OXA) group, blank castor oil (vehicle) group, Compound 1 administration group, Compound 2 administration group, Compound 3 administration group, Compound 4 administration group, Compound 5 administration group, Compound 6 administration group, Compound 7 administration group, and Compound 8 administration 10 group, with 5 animals in each group. Each group except NC group was treated for modeling AD. Day 0:0.8%-OXA solution was applied to the auricle of both ears at 20 μL per ear. Day 7, 10, 12, 14, 17, 19, 21, and 23:0.4%-OXA solution was applied to the auricle of both ears at 20 μL per ear. Each group except NC group and OXA group was administrated. The administration started from day 7 to day 23, and the mice was administrated once a day at the auricle of both ears by 50 μL per ear (100 μL per mouse). The condition of the animals was observed during the experimental period, and the auricle was scored for skin lesions (see Table 1 for skin lesion scoring criteria), and the thickness of the ears was measured. [table]

[3] = system: MC903-induced AD model; experiment: MC903-induced AD mouse model, Example 3 (ear swelling, skin thickness, mast cells, histopathology, serum IgE ELISA)
From the text: Experimental animals involved in the following embodiments were SPF-grade BALB/c mice (≥7 weeks old, female). The scoring criteria for skin lesions involved in the following embodiments are shown in Table 1 and the histopathological scoring criteria are shown in Table 2. [table] This example explores the preventive and therapeutic effect of a small-molecule diterpene derivative on the MC903-induced AD model, including the following: • The day of grouping was defined as day 0. Mice were randomly divided into 5 groups: blank control (NC) group, model (MC903) group, blank cream (vehicle) group, 0.1%-Compound 1 cream group, and 0.5%-Compound 1 cream group; each group had 10 animals. Each group except NC group was treated for modeling AD. From day 0 to day 10:0.1 nmol/μL-MC903 solution was applied to the auricle of right ear at 20 μL once a day. Each group except NC group and MC903 group was administrated. The administration started from day 3 to day 10, and the mice was administrated once a day at the auricle of right ear by 50 μL. The condition of the animals was observed during the experimental period. The mice were euthanized, and their ear tissues were retained for the degree of ear swelling measurement, skin thickness measurement, mast cell counting and immunohistochemical analysis, and their blood tissues were retained for ELISA. [table]

[4] = system: OXA-induced AD model; experiment: OXA-induced AD mouse model, Example 2 (Compound 1 cream; lesion score, ear thickness, immunohistochemistry, Western Blot); details: for right ear thickness on day 24 / skin lesion score on day 24: 50 μL per ear once a day, day 7 to day 23; for right ear thickness on day 24 / skin lesion score on day 24 / ICAM-1 positive rate, immunohistochemistry / Ki67 positive rate, immunohistochemistry / VCAM-1 positive rate, immunohistochemistry: vs vehicle group
From the text: Experimental animals involved in the following embodiments were SPF-grade BALB/c mice (≥7 weeks old, female). The scoring criteria for skin lesions involved in the following embodiments are shown in Table 1 and the histopathological scoring criteria are shown in Table 2. [table] The day of grouping was defined as day 0. Mice were randomly divided into 5 groups: blank control (NC) group, model (OXA) group, blank cream (vehicle) group, 0.1%-Compound 1 cream group, and 0.5%-Compound 1 cream group; the NC group had 5 animals, the other groups each had 10 animals. Each group except NC group was treated for modeling AD. Day 0:0.8%-OXA solution was applied to the auricle of both ears at 20 μL per ear. Day 7, 10, 12, 14, 17, 19, 21, and 23:0.4%-OXA solution was applied to the auricle of both ears at 20 μL per ear. Each group except NC group and OXA group was administrated. The administration started from day 7 to day 23, and the mice was administrated once a day at the auricle of both ears by 50 μL per ear (100 μL per mouse). The condition of the animals was observed during the experimental period, and the auricle was scored for skin lesions (see Table 1 for skin lesion scoring criteria), and the thickness of the ears was measured. The mice were euthanized, and their ear tissues were retained for immunohistochemistry and Western Blot analysis. [table]

[5] = 50 μL per ear on auricle once a day, compared with vehicle group
[6] = cream 0.1% and 0.5%, right auricle, day 3 to day 10
[7] = cream, 0.1% and 0.5% groups together
[8] = cream, 0.1% and 0.5%, ear tissue

SMILES: C=C1C(=O)[C@@]23[C@H](O)C[C@@H]4C(C)(C)c5nc(N(C)C)sc5C[C@@]4(C)[C@@H]2CC[C@@H]1[C@H]3O [Compound 1]
- scratching times in 15 min (extent of itching) [1]: effectively ameliorates the extent of itching
- skin lesion score on day 24 [2, 5]: effectively reduce the skin lesion score
- OXA-induced AD-like lesions (conclusion of Example 1) [2]: significantly ameliorate the OXA-induced AD-like lesions
- degree of ear swelling ([3]; cream 0.1% and 0.5%, 50 μL on right auricle once a day, day 3 to day 10): effectively ameliorate the ear swelling
- dermal thickness (ear histological scanning) [3, 6]: effectively ameliorate the thickening of epidermis and dermis
- epidermal thickness (ear histological scanning) [3, 6]: effectively ameliorate the thickening of epidermis and dermis
- histopathology scores (total, parakeratosis, epidermal defect, dermal papilla thickening, capillary proliferation, inflammatory infiltration), HE staining [3, 6]: effectively ameliorates the extent of MC903-induced AD-like lesions
- mast cell counting (toluidine blue staining of ear tissue sections) [3, 6]: significantly reduces the number of mast cells
- serum IgE concentration (ELISA) [3, 6]: inhibits the serum IgE concentration
- MC903-induced AD-like lesions (conclusion of Example 3) ([3]; cream, 0.1% and 0.5%): significantly ameliorate the MC903-induced AD-like lesions
- right ear thickness on day 24 ([4]; 0.1% cream): statistically different from the vehicle group
- skin lesion score on day 24 ([4]; 0.1% cream): statistically different from the vehicle group
- ICAM-1 positive rate, immunohistochemistry ([4]; 0.1% cream, ear tissue): reduced
- Ki67 positive rate, immunohistochemistry ([4]; 0.1% cream, ear tissue): reduced (statistically different)
- VCAM-1 positive rate, immunohistochemistry ([4]; 0.1% cream, ear tissue): reduced
- right ear thickness on day 24 ([4]; 0.5% cream): statistically different from the vehicle group
- skin lesion score on day 24 ([4]; 0.5% cream): statistically different from the vehicle group
- ICAM-1 positive rate, immunohistochemistry ([4]; 0.5% cream, ear tissue): reduced
- Ki67 positive rate, immunohistochemistry ([4]; 0.5% cream, ear tissue): reduced (statistically different)
- VCAM-1 positive rate, immunohistochemistry ([4]; 0.5% cream, ear tissue): reduced
- OXA-induced AD-like lesions (conclusion of Example 2) ([4]; cream, 0.1% and 0.5%): significantly ameliorate the OXA-induced AD-like lesions
- ear thickness (conclusion) [4, 7]: effectively ameliorate the ear thickness
- epidermal overproliferation (Ki67) and aberrant expression of adhesion factor (ICAM-1, VCAM-1), conclusion [4, 7]: effectively inhibit the epidermal overproliferation and aberrant expression of adhesion factor
- skin lesion score (conclusion) [4, 7]: effectively reduce the skin lesion score
- ICAM-1 protein expression (gray value), Western Blot [4, 8]: consistent with the immunohistochemical results
- VCAM-1 protein expression (gray value), Western Blot [4, 8]: consistent with the immunohistochemical results

SMILES: C=C1C(=O)[C@@]23[C@H](O)C[C@@H]4C(C)(C)c5nc(N)sc5C[C@@]4(C)[C@@H]2CC[C@@H]1[C@H]3O [Compound 2]
- skin lesion score on day 24 [2, 5]: do not exert a significant anti-atopic dermatitis effect

SMILES: C=C1C(=O)[C@@]23[C@H](O)C[C@@H]4C(C)(C)c5nc(NC)sc5C[C@@]4(C)[C@@H]2CC[C@@H]1[C@H]3O [Compound 3]
- skin lesion score on day 24 [2, 5]: do not exert a significant anti-atopic dermatitis effect

SMILES: C=C1C(=O)[C@@]23[C@H](O)C[C@@H]4C(C)(C)c5nc(NCC)sc5C[C@@]4(C)[C@@H]2CC[C@@H]1[C@H]3O [Compound 4]
- skin lesion score on day 24 [2, 5]: do not exert a significant anti-atopic dermatitis effect

SMILES: C=C1C(=O)[C@@]23[C@H](O)C[C@@H]4C(C)(C)c5nc(N(CC)CC)sc5C[C@@]4(C)[C@@H]2CC[C@@H]1[C@H]3O [Compound 5]
- skin lesion score on day 24 [2, 5]: effectively reduce the skin lesion score
- OXA-induced AD-like lesions (conclusion of Example 1) [2]: significantly ameliorate the OXA-induced AD-like lesions

SMILES: C=C1C(=O)[C@@]23[C@H](O)C[C@@H]4C(C)(C)c5nc(N(CCC)CCC)sc5C[C@@]4(C)[C@@H]2CC[C@@H]1[C@H]3O [Compound 6]
- skin lesion score on day 24 [2, 5]: effectively reduce the skin lesion score
- OXA-induced AD-like lesions (conclusion of Example 1) [2]: significantly ameliorate the OXA-induced AD-like lesions

SMILES: C=C1C(=O)[C@@]23[C@H](O)C[C@@H]4C(C)(C)c5nc(N(C(C)C)C(C)C)sc5C[C@@]4(C)[C@@H]2CC[C@@H]1[C@H]3O [Compound 7]
- skin lesion score on day 24 [2, 5]: effectively reduce the skin lesion score
- OXA-induced AD-like lesions (conclusion of Example 1) [2]: significantly ameliorate the OXA-induced AD-like lesions

SMILES: C=C1C(=O)[C@@]23[C@H](O)C[C@@H]4C(C)(C)c5nc(Nc6ccncc6)sc5C[C@@]4(C)[C@@H]2CC[C@@H]1[C@H]3O [Compound 8]
- right ear thickness on day 24 [2, 5]: Vehicle group>Compound 8 group
- skin lesion score on day 24 [2, 5]: do not exert a significant anti-atopic dermatitis effect
